The test system of test [1] is β-catenin-driven gene transcription in APC-negative colorectal cancer cell line SW480. Briefly: Topflash reporter gene assay in SW480 cells. The test is classed as cell-based. The method, then: Cultured cells were transfected with 100 ng of reporter gene Topflash® together with expression vectors indicated under each graph. […] (A) Data from HEK293 cells co-transfected with wild type or mutant β-catenin (200 ng) and RXRα (20 ng). (B) CAT, a stable cell line that overexpresses β-catenin (left panel). RBC, a stable cell line that overexpresses both RXRα and β-catenin. (C) SW480, a colorectal cancer cell line, was transfected with 100 ng of Topflash®. The amount of RXRα cotransfected was indicated below the X axis. Reporter activity on the Y axis is expressed as either Luciferase Unit or percentage of activity in cells transfected with Topflash® alone.
For transfection of the HEK293 cell line, cells were seeded at a density of 50,000 cells per well in 24-well plates coated with poly-D-Lysine (Becton Dickinson). […] Harvested cells were lysed, and luciferase activity was measured as previously described (de Wet, J. R., Wood, K. V., DeLuca, M., Helinski, D. R., Subramani, S. (1987) Mol. Cell. Biol. 7, 725-737). In cells transfected with the LacZ control gene, β-galactosidase activity was measured by standard colorimetric assays. Renilla reniformis […] activity was determined using the Dual-Luciferase Reporter 100 Assay System (Promega Corporation, 2800 Woods Hollow Road, Madison Wis. USA 53711). […]

For test [2], the target named is T1, RXRα and ΔNβ-catenin interaction (Homo sapiens, UniProt P19793).
T1 sequence (P19793 1-462): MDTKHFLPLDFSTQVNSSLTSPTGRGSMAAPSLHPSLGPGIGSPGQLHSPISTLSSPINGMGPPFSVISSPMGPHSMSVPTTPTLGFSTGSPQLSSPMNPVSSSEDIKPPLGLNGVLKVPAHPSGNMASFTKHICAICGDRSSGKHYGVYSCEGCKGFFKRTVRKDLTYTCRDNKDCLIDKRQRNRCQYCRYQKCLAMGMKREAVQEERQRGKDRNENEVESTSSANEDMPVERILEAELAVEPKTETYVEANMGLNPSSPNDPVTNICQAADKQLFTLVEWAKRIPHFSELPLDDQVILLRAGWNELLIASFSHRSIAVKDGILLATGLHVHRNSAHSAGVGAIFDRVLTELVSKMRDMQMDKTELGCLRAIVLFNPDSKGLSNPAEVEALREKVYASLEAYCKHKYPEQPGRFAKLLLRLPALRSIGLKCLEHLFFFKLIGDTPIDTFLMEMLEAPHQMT
T1 sequence (P35222 51-781 partner): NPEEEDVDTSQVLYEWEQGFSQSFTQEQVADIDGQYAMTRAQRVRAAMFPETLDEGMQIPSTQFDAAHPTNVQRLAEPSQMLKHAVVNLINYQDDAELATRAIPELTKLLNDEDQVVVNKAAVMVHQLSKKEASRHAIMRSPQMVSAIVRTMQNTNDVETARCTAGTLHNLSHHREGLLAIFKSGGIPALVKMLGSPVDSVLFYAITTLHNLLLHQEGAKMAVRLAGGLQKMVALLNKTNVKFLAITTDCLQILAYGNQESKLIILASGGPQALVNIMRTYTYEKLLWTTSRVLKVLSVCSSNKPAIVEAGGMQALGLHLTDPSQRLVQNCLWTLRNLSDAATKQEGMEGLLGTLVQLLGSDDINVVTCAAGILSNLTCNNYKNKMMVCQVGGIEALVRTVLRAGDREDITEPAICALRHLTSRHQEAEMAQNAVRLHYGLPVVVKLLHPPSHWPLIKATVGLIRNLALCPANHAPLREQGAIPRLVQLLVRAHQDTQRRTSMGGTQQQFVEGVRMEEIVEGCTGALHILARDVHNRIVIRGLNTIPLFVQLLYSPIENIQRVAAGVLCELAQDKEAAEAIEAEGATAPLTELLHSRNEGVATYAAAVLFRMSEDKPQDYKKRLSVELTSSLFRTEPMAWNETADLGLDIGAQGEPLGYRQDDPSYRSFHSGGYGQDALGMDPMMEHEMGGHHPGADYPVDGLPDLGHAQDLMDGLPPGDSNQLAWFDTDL
Briefly: In vivo protein crosslinking and immunoprecipitation. Type of test: cell-based. Conditions: HEK293, 1 μM AGN 4204 or vehicle before DSP crosslinking.
Protocol: HEK293 cells were transfected with a combination of 8 μg of ΔNβ-catenin (C) and 4 μg of RXRα. […] Cell lysates were subjected to immunoprecipitation using antibodies against the Flag tag in RXRα. Crosslinked molecules in immunoprecipitates were dissociated by reduction with β-mercaptoethanol before Western blotting analysis using HRP-conjugated antibodies against the v5 tag in ΔNβ-catenin (Top panel).
HEK293 cells were cultured to about 80% confluence in 150-mm Biocoat poly-D-Lysine plates (VWR Cat#354550), and then transfected with expression vectors for ΔN-β-catenin, and RXRα using Lipofectamine® Transfection Reagent (Invitrogen). Cells were then cultured in high glucose DMEM medium containing 10% activated charcoal-extracted fetal bovine serum.
The reaction was quenched by adding Tris buffer at pH7.5 to a final concentration of 20 mM. […]
To determine whether RXRs and β-catenin interact with each other, HEK293 cells were transfected with expression vectors for RXRα and/or ΔNβ-catenin. […] After completion of the cross-linking reaction, cell extracts were prepared and analyzed by immunoprecipitation using antibodies against the FLAG epitope in an RXRα-FLAG fusion protein, followed by Western blotting analysis using antibodies against the V5 Tag in ΔNβ-catenin. […]

Consider one molecule from patent US20040009921A1, “Methods and compositions for the treatment of cancer” (Allergan, Inc., priority 2002, published 2004).

Turning to `CC(/C=C/[C@@H]1C[C@]1(C)c1ccc2c(c1)C(C)(C)CCC2(C)C)=C\C(=O)O` [AGN 4204], the reporter gene activity entry is reported as “not sufficient to produce an effect” in test [1] (SW480, low levels of endogenous RXRs only) and “a decrease in reporter gene activity” in test [1] (SW480 cotransfected with RXRα, 0.1 μM, 17 hours). In addition, in test [2], the “interaction between RXRα and ΔNβ-catenin (co-immunoprecipitation)” value is given as “ligand-independent”.
